# Results taken from PMC11435328, “An Innovative Inhibitor with a New Chemical Moiety Aimed at Biliverdin IXβ Reductase for Thrombocytopenia and Resilient against Cellular Degradation” (Pharmaceutics, 2024).
# Like-named read-outs stand apart in the source and are kept apart here.
# How the values were obtained:
# [1] = system: T1, half-holo BLVRB; experiment: 1H-15N HSQC of half-holo BLVRB with 5-ASA; format: binding, human; conditions: 0.1 mM half-holo BLVRB, 1 mM 5-ASA, HSQC (Figure S3)
# T1 construct: His6 (N, cleaved yes); made in house; host or cells: E. coli BL21(DE3), pET-21b
# Method: All NMR experiments were performed with the Bruker 800 MHz spectrometer at 25 °C. A total of 0.2 mM ^15N-labeled BLVRB or apo-BLVRB was prepared in buffer (pH 6.5, 50 mM Bis-tris, 50 mM NaCl, and 5% D2O), and their ^1H-^15N heteronuclear single-quantum coherence (HSQC) spectra were recorded in the presence and absence of drug molecules. The 1-dimensional (1D) ^1H spectra to monitor the enzyme reactions were conducted in PBS buffer. The chemical shift perturbation (CSP) data were presented using the square root of (ΔH)^2 + [(ΔN)/6]^2 to normalize the relative effects from the CSPs of ^1H and ^15N [44]. The diffusion-ordered spectroscopy (DOSY) spectra were measured using the ledbpgppr2s, with 80 ms diffusion delay, 2 s relaxation delay, and 32 gradient strength increments. The backbone assignments were referenced from BMRB Entry ID: 27463 for holo BLVRB and Entry ID: 27462 for apo BLVRB to assign the spectra in the presence and absence of the drug.
# Figure S3. 5-ASA binding of half-holo BLVRB: (A) The 1H-15N HSQC spectra of 0.1 mM half-holo BLVRB in the absence (black) and presence (red) of 1 mM 5-ASA. (B) Chemical shift diﬀerences between half-holo BLVRB and BLVRB in complex with OSK (black) and 5-ASA (red). (C) NMR ti-tration data for binding to half-holo BLVRB. […]
# [2] = molecular target: T2, human BLVRB (half-holo BLVRB) (Homo sapiens, UniProt P30043); experiment: Isothermal titration calorimetry (ITC) of drug binding to half-holo BLVRB; conditions: 25 °C
# T2 construct: His6 (N, cleaved yes); made in house; host or cells: E. coli BL21(DE3), pET-21b
# T2 sequence (P30043 1-206): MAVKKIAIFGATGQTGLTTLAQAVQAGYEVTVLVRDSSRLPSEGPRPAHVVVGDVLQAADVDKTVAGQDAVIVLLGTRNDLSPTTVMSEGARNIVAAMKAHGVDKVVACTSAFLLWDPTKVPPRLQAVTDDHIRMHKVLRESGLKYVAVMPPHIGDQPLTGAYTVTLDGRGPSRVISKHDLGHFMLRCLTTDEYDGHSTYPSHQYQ
# Method: (§1) The human BLVRB protein was prepared following the previously reported method. Briefly, the N-terminal His6-tagged BLVRB was expressed in the E. coli BL21(DE3) strain using the pET-21b protein expression vector. The transformed E. coli cells were grown in LB and M9 media at 37 °C to express the nonlabeled and isotope-labeled (^15N or ^13C/^15N) BLVRB proteins, respectively. To induce protein expression, 0.5 mM IPTG was added to the cultures when the OD600 reached 0.8, and then the cells were harvested after ~3–4 h. Cells were lysed by sonication in buffer (pH 8.0, 25 mM Tris-HCl, 500 mM NaCl, and 10 mM β-mercaptoethanol). The BLVRB protein was first purified by His-tag affinity column chromatography using the HisTrap HP column (Cytiva). To remove the His-tag, the protein elution was dialyzed in buffer (pH 8.0, 50 mM Tris-HCl, and 1 mM dithiothreitol) overnight at 4 °C, after adding thrombin (~5 units per mg protein). Since thrombin bound to HiTrap-Q HP column at pH 8.0, ion-exchange column chromatography was performed with buffer (pH 8.0, 25 mM Tris-HCl, and 1 mM dithiothreitol), and then the elution was performed with 1.0 M NaCl gradient; BLVRB and thrombin eluted at ~150 and ~300 mM NaCl, respectively. To separate the His6-tagged BLVRB from the completely cleaved BLVRB, the HisTrap HP column was tandemly attached to the next of the HiTrap-Q column. The BLVRB protein was further purified by size exclusion chromatography (SEC) using the HiLoad 16/600 Superdex 75 (Cytiva) with nonbuffered solution (50 mM NaCl and 1 mM dithiothreitol). The protein fractions were concentrated using an ultracentrifugal filter with 10 kDa MWCO (Millipore, Burlington, MA, USA) and then were stored at −70 °C before use. Apo-BLVRB was prepared using the previously reported refolding method, with additional column chromatography steps. Briefly, the purified BLVRB was denatured in buffer (pH 7.5, 25 mM Tris-HCl, 10 mM β-mercaptoethanol, and 6.0 M urea) and then applied to the HisTrap HP column. After washing with buffer (pH 5.0, 25 mM Na-acetate, 10 mM β-mercaptoethanol, and 6.0 M urea), they were eluted with an additional 1.0 M NaCl gradient. After 2-fold dilution with buffer (pH 5.0, 20 mM Na-acetate, 10 mM β-mercaptoethanol, and 6.0 M urea), apo-BLVRB was further purified by cation-exchange column chromatography using the HiTrap-SP column (Cytiva). Protein elution was performed by 1.0 M NaCl gradient in the presence of 6.0 M urea. The protein was refolded by dialysis in buffer (pH 6.5, 50 mM Bis-tris, 150 mM NaCl, and 1 mM DTT). After removing the aggregate (~20%) by centrifuge, it was purified by SEC using the HiLoad 16/600 Superdex 75 with buffer (pH 6.5, 10 mM Bis-tris, 50 mM NaCl, and 1 mM DTT). The apo-BLVRB solution was concentrated and then stored at −70 °C. Although thawing the frozen sample caused ~10% precipitation of apo-BLVRB, the maintenance of the structure was confirmed by ^1H-^15N HSQC spectrum. The concentration was also determined using UV absorption with an extinction coefficient (A280) of 14,440 M^−1⋅cm^−1. The purity was confirmed by SDS-PAGE gel analysis.
# The ITC experiment was conducted in buffer (pH 6.5, 50 mM Bis-tris, 50 mM NaCl, and 0.1 mM TCEP) using a Microcal Auto-iTC200 (Malvern Instruments, Malvern, UK) at 25 °C. The calorimetric cell (200 μL) and syringe (40 μL) were loaded with 0.09 mM BLVRB and 1.1 mM drug (OSK or OSA), respectively. The ITC data were analyzed after subtracting the heat from blank injections that were measured under the same conditions but in the absence of BLVRB. Data processing was carried out using the Origin software provided by the manufacturer, where the fittings were performed with a one-site binding model.
# [3] = cited from earlier work
# [4] = system: T3, Escherichia coli (E. coli) AzoR; experiment: Cleavage by partially purified AzoR fraction, monitored by 1D 1H NMR; format: in vitro ADME; conditions: incubation with column fraction containing AzoR activity and NAD(P)H
# T3 construct: E. coli DH5α cells were cultured in LB medium to obtain AzoR protein at 37 °C; endogenous in cells; host or cells: E. coli DH5α induced with 2-MHQ; Hitrap-Q anion-exchange fraction
# Method: E. coli DH5α cells were cultured in LB medium to obtain AzoR protein at 37 °C. Since various electrophilic quinones increase the mRNA level of the acpD gene-encoding AzoR protein [36], 0.5 mM methylhydroquinone (2-MHQ) was added to the culture when the optical density of the cells at 600 nm (OD600) reached 0.8. The cells were harvested by centrifugation after ~3–4 h. To enrich the AzoR protein, anion-exchange column chromatography using the Hitrap-Q HP column (Cytiva, Marlborough, MA, USA) was performed, in which the column was pre-equilibrated with buffer (pH 8.0, 25 mM Tris-HCl), and then 1.0 M NaCl gradient was applied to elute proteins. The AzoR activity in the elution fractions was measured by the enzyme activity assay using 0.1 mM menadione and 0.1 mM NADH, in which decreasing absorption at 340 nm was measured following the previously reported method. […]
# (§2) All NMR experiments were performed with the Bruker 800 MHz spectrometer at 25 °C. A total of 0.2 mM ^15N-labeled BLVRB or apo-BLVRB was prepared in buffer (pH 6.5, 50 mM Bis-tris, 50 mM NaCl, and 5% D2O), and their ^1H-^15N heteronuclear single-quantum coherence (HSQC) spectra were recorded in the presence and absence of drug molecules. […] The diffusion-ordered spectroscopy (DOSY) spectra were measured using the ledbpgppr2s, with 80 ms diffusion delay, 2 s relaxation delay, and 32 gradient strength increments. […]
# [5] = molecular target: T4, apo-BLVRB (Homo sapiens, UniProt P30043); experiment: NMR 1H-15N HSQC chemical shift perturbation titration of apo-BLVRB; format: binding; conditions: for Kd: Apo-BLVRB from NMR CSP experiment; for binding to apo-BLVRB: HSQC of apo-BLVRB titrated with drug (Figure S4)
# T4 construct: His6 (N); made in house; host or cells: E. coli BL21(DE3), pET-21b
# T4 sequence (P30043 1-206): T2 sequence (P30043 1-206)
# Method: as §1, with “After 2-fold dilution with buffer (pH 5.0, 20 mM Na-acetate, 10 mM β-mercaptoethanol, and 6.0 M urea), apo-BLVRB was further purified by cation-exchange column chromatography using the HiTrap-SP column (Cytiva). Protein elution was performed by 1.0 M NaCl gradient in the presence of 6.0 M urea. The protein was refolded by dialysis in buffer (pH 6.5, 50 mM Bis-tris, 150 mM NaCl, and 1 mM DTT). After removing the aggregate (~20%) by centrifuge, it was purified by SEC using the HiLoad 16/600 Superdex 75 with buffer (pH 6.5, 10 mM Bis-tris, 50 mM NaCl, and 1 mM DTT). The apo-BLVRB solution was concentrated and then stored at −70 °C. Although thawing the frozen sample caused ~10% precipitation of apo-BLVRB, the maintenance of the structure was confirmed by ^1H-^15N HSQC spectrum.” left out, “The purity was confirmed by SDS-PAGE gel analysis.” left out
# as §2
# [6] = molecular target: T5, BLVRB (Homo sapiens, UniProt P30043); experiment: BLVRB enzyme activity assay (NADPH absorption at 340 nm, FMN substrate); format: biochemical; conditions: for uncompetitive inhibition constant (Kiu) / Ki: 0.5 µM BLVRB, 100 µM FMN, 100 µM NADPH, PBS, 0.5% DMSO, mixed inhibition model; for Ki: read-out: competitive inhibition constant (Kic); for inhibition pattern (Lineweaver–Burk plot): BLVRB in the presence of NADPH; for maximum velocity (Vm): enzyme parameter of BLVRB from the fit of the data set with this inhibitor
# T5 construct: His6 (N, cleaved yes); made in house; host or cells: E. coli BL21(DE3), pET-21b
# T5 sequence (P30043 1-206): T2 sequence (P30043 1-206)
# Method: Enzyme kinetics were monitored using the absorption of NADPH at 340 nm with the SpectraMax Gemini EM Microplate Reader (Molecular Devices, San Jose, CA, USA). The enzyme reactions were conducted with 0.5 µM BLVRB, 100 µM FMN, and 100 µM NADPH in PBS buffer containing 0.5% DMSO in the presence of various concentrations of inhibitors (OSK and OSA). The initial velocities of the reactions were estimated from data collected over 5 min and were fitted to the Michaelis–Menten equation. The inhibition model and inhibition constants were determined using the in-house Python script of nonlinear least squares regression fitting.
# [7] = molecular target: T2, human BLVRB (half-holo BLVRB); design: method as in PMID 34957824; conditions: ITC, 25 °C; cited from earlier work
# [8] = system: rats; design: method as in PMID 2160137; conditions: cited from earlier work
SMILES,Kd [2] [nM],TΔS [2] [kcal/mol],ΔG [2] [kcal/mol],ΔH [2] [kcal/mol],cleavage by AzoR [4],Kd [5] [nM],binding to apo-BLVRB [5],uncompetitive inhibition constant (Kiu) [6] [µM],Ki [6] [nM],inhibition pattern (Lineweaver–Burk plot) [6],maximum velocity (Vm) [6] [µM/min],also measured
"Nc1ccc(O)c(C(=O)O)c1 [5-ASA, 5-aminosalicylic acid]",,,,,,,,,,,,binding to BLVRB [1]: reduced significantly
"O=C(O)c1cc(/N=N/c2ccc(O)c(C(=O)O)c2)ccc1O [Olsalazine, olsalazine]",150 ± 230,-4.22 ± 0.13,-9.32 ± 0.09,-13.54 ± 0.08,cleavage of its diazenyl bond and the formation of 5-ASA,9310 ± 2410,able to bind to the apo-BLVRB,0.79 ± 0.06,550 ± 40,mixed inhibition pattern,4.71 ± 0.09,plasma elimination half-life [3]: approximately 1 h
"O=C(O)c1cc(/C=C/c2ccc(O)c(C(=O)O)c2)ccc1O [Olsalkene, (E)-5,5′-(ethene-1,2-diyl)bis(2-hydroxybenzoic acid)]",140 ± 270,-5.98 ± 0.17,-9.33 ± 0.11,-15.31 ± 0.12,remains intact and is not cleaved by AzoR,11400 ± 2220,able to bind to the apo-BLVRB,0.61 ± 0.06,560 ± 100,mixed inhibition pattern,4.80 ± 0.16,
"O=C([O-])c1c(Cl)c(Cl)c(Cl)c(Cl)c1-c1c2cc(Br)c(=O)c(Br)c-2oc2c(Br)c([O-])c(Br)cc12.[Na+].[Na+] [Phloxine B, phloxine B]",,,,,,,,,,,,Kd [7]: 1360 ± 220 nM; TΔS [7]: 4.12 ± 0.12 kcal/mol; ΔG [7]: -8.00 ± 0.10 kcal/mol; ΔH [7]: -3.88 ± 0.06 kcal/mol
O=C1OC2(c3ccccc31)c1cc(I)c(O)c(I)c1Oc1c2cc(I)c(O)c1I [erythrosin B],,,,,,,,,,,,effect of chronic administration [8]: thyroid stimulation
